{
  "source": "paper PMC9886550",
  "about": "“Molecular mechanism of topoisomerase poisoning by the peptide antibiotic albicidin” (Nature Catalysis, 2023)",
  "key": {"E. coli gyrase GyrA^I74M": {"target": "T1, E. coli gyrase GyrA^I74M (Escherichia coli, UniProt P0AES4+P0AES6, I74M)", "T1 construct": "alternative cryo-EM approach involving full-length E. coli gyrase; 10-His (cleaved yes); Twin-Strep (cleaved yes); made in house", "assay": "DNA gyrase cleavage assay (CC50, % cleaved DNA)", "format": "biochemical", "details": "for % maximal cleavage: GyrAI74M, average of 3 independent assays; for EC50: GyrA^I74M, mean ± s.d. of triplicate; for % cleaved DNA Average: average of replicates", "protocol": "For DNA gyrase supercoiling assays to characterize gyrase mutants, 15 µl reactions were set up containing 250 ng of relaxed DNA, E. coli gyrase supercoiling buffer (35 mM Tris–Cl pH 7.5, 24 mM KCl, 4 mM MgCl2, 2 mM DTT, 1.8 mM spermidine, 1 mM ATP, 6.0% (w/v) glycerol, and 0.1 mg ml^−1 BSA), gyrase subunits and inhibitors. Concentrations of enzyme and inhibitor are stated in the figure legends. Inhibitors were diluted in the following way to reduce the chance of precipitation: stock compound in 100% DMSO was diluted to 5 mM in 100% DMSO. This compound solution was diluted to 1 mM by stepwise addition of 1 µl of 50% DMSO with thorough mixing via pipetting after each addition. All subsequent dilutions up to 100 µM were performed in the same way using H2O. After this point, compounds were stable and could be diluted in the normal way. Reactions were incubated at 37 °C for 30 min before stopping with 15 µl chloroform:isoamyl alcohol (24:1 v/v) and 15 µl of STEB (40% (w/v) sucrose, 100 mM Tris–Cl pH 8, 10 mM EDTA, 0.5 mg ml^−1 bromophenol blue).\nCleavage assays were set up in the same way as supercoiling assays with some modifications. The concentration of enzyme was increased 4-fold relative to the supercoiling assay and reactions were incubated for 1 h before addition of 0.2% SDS and proteinase K (0.2 mg ml^−1) and further incubation at 37 °C for 30 min to trap cleavage complexes. Reactions were stopped in the same way as supercoiling assays.\nResults were visualized by agarose gel electrophoresis: 1% agarose Tris-acetate-EDTA (TAE) gels were run without ethidium bromide (supercoiling) or with 10 µg ml^−1 ethidium bromide (cleavage) at 8 V cm^−1.\nDNA cleavage gels were analysed using densitometry (ImageJ). Experiments were carried out in triplicate and expressed as mean ± s.d. Curves were fitted using OriginPro 2021 (Origin Lab) according to a modified Hill equation:1 y=cI+(cF−cI)[…]/(k^n+x^n) where y is the percentage of cleaved DNA, cI is the initial cleavage, cF is the final cleavage, k is the CC50 (the concentration of inhibitor that results in cleavage of 50% of DNA), n is a slope factor and x is the inhibitor concentration."}, "DNA gyrase": {"test_system": "DNA gyrase", "assay": "DNA gyrase supercoiling inhibition assay (initial IC50 determination)", "format": "biochemical, E. coli", "details": "vs Albi-3", "protocol": "For initial compound IC50 determination, DNA supercoiling experiments with DNA gyrase were performed in a total volume of 30 μl of gyrase buffer (Inspiralis). The reactions contained 500 ng relaxed pBR322 plasmid DNA, 1.5 U DNA gyrase (6 U μl^−1) and albicidin derivatives at a final concentration of between 2.5 and 320 nM. The final DMSO concentration used was 3%. Samples were incubated at 37 °C for 30 min and subsequently loaded on an agarose gel. Electrophoretic analysis was performed using a 1% agarose gel (100 V, 90 min). DNA bands were stained with ethidium bromide and subsequently quantified using ImageJ 1.53k software.\nExtended Data Fig. 8 Inhibition of supercoiling by Albi-1/2/3. a. Chemical structures of Albi-1, Albi-2 and Albi-3. b. Example supercoiling inhibition assay gels: Albi-1, decreasing concentrations (320, 160, 80, 40, 20, 10, 5, 2.5 nM); Albi-2 (320, 160, 80, 40, 20 nM); Albi-3 (960, 800, 640, 480, 320, 160, 80, 40 nM). First lane - relaxed pBR322; second lane - DNA gyrase. 40 nM albicidin was used as positive control (third lane). Different concentrations were tested and representative gels are shown."}, "[1]": {"format": "physicochemical", "details": "100 µM in Topo IV assays", "protocol": "Supplementary Figure 11. Activity of albicidin and Albi-1/2/3 on E. coli topoisomerase IV. a. Plasmid relaxation activity of E. coli topo IV in the presence of albicidin, Albi-1, Albi-2 and Albi-3. First lane: negatively supercoiled pBR322; second lane: innate relaxation activity of E. coli topo IV (12.5 nM); third lane: effect of 20 µM CFX; subsequent lanes: effect of increasing compound concentration (0.1, 1, 10, 100 […]\nhigher concentration. b. Cleavage activity of E. coli topo IV in the presence of albicidin, Albi-1, Albi-2 and Albi-3. First lane: negatively supercoiled pBR322; second lane: innate cleavage activity of E. coli topo IV (15 nM); third lane: effect of 20 µM CFX; subsequent lanes: effect of increasing compound concentration (0.1, 1, 10, 100 µM). […]\nconcentration. All experiments were carried out in triplicates and representative gels […]\n(1 picture or pasted object on this page, not shown here)"}, "E. coli gyrase": {"target": "T2, E. coli gyrase (Escherichia coli, UniProt P0AES4+P0AES6)", "T2 construct": "alternative cryo-EM approach involving full-length E. coli gyrase; 10-His (cleaved yes); Twin-Strep (cleaved yes); made in house", "assay": "Gyrase cleavage of linear DNA fragments (Mu217 and others)", "format": "biochemical", "details": "1 µM albicidin", "protocol": "Mu217 DNA (25 nM) was incubated with 0.4 µM gyrase and indicated concentrations (1 or 10 µM) of diazirine-labelled albicidin (photo-Albi, φAlbi) in a volume of 20 µl (~70 ng DNA) at 37 °C for 30 min in gyrase cleavage buffer (see section 'Topoisomerase assays'). For CFX competition experiments, 30 µM CFX was added first, followed by the albicidin. Reactions were either irradiated with ultraviolet 365 nm (benchtop transilluminator) with cooling (ice) for 30 min or left on ice for 30 min (‘dark’). Then, 0.2% SDS and 0.2 mg ml^−1 proteinase K were added to both samples, which were incubated for another 30 min. Reactions were mixed with loading dye (STEB) and chloroform:isoamyl alcohol (24:1 v/v) before vortexing and centrifugation. The aqueous phase was loaded on 4–20% TBE (Tris–borate–EDTA) polyacrylamide gel (Thermo) and ran for 1 h at 150 V. DNA was visualized with SYBR Gold (Thermo) staining.\nExtended Data Fig. 1 Length dependency of albicidin-mediated DNA cleavage. Position of cleaved DNA indicated by arrows and red dots. ATP and ADPNP were added as indicated, (----) stands for no nucleotide added. 20 nM gyrase, 1 µM albicidin and 25 nM DNA was used in each reaction.\nExtended Data Fig. 5 Photocrosslinking of diazirine-labelled albicidin (photo-Albi) to the DNA. a. Structures of N-terminal photo-Albi and control compound. b. DNA cleavage assay with Mu217 fragment and indicated concentrations of compounds. The labelled DNA band appearing upon irradiation of a photo-compound when bound to the complex is marked by a yellow star. c. Ciprofloxacin competition experiment. Pre-incubation with excess CFX prevents albicidin binding and crosslinking. Details of the experiment are available in Methods section."}},
  "data": [
    {"smiles": "CC(C)Oc1c(NC(=O)c2ccc(NC(=O)[C@H](Cc3c[nH]nn3)NC(=O)c3ccc(NC(=O)c4ccc(C#N)cc4)cn3)cn2)ccc(C(=O)Nc2ccc(C(=O)O)cc2)c1O", "note": "[Albi-1]", "values": [
      {"measurement": "% maximal cleavage", "setting": "E. coli gyrase GyrA^I74M", "result": "79±5", "unit": "%"},
      {"measurement": "EC50", "setting": "E. coli gyrase GyrA^I74M", "result": "0.03 ± 0.0027", "unit": "µM"}
    ]},
    {"smiles": "COc1c(NC(=O)c2ccc(NC(=O)c3ccc(NC(=O)[C@H](Cc4c[nH]nn4)NC(=O)c4ccc(NC(=O)c5ccc6cc(O)ccc6c5)cc4)cn3)c(OCCN)c2O)ccc(C(=O)O)c1O", "note": "[Albi-2]", "values": [
      {"measurement": "better activity in the gyrase inhibition assay than Albi-3", "setting": "DNA gyrase", "result": "~ 4 fold"}
    ]},
    {"smiles": "COc1c(NC(=O)c2ccc(NC(=O)c3ccc(NC(=O)[C@H](Cc4c[nH]nn4)NC(=O)c4ccc(NC(=O)c5ccc6nc(C)ccc6c5)cc4)cn3)c(OC)c2O)ccc(C(=O)O)c1O", "note": "[Albi-3]", "values": [
      {"measurement": "solubility in assay", "setting": "[1]", "result": "solubility issues"}
    ]},
    {"smiles": "COc1c(NC(=O)c2ccc(NC(=O)c3ccc(NC(=O)[C@H](CC#N)NC(=O)c4ccc(NC(=O)/C(C)=C/c5ccc(O)cc5)cc4)cc3)c(OC)c2O)ccc(C(=O)O)c1O", "note": "[Albicidin]", "values": [
      {"measurement": "cleavage of DNA fragments", "setting": "E. coli gyrase; fragments shorter than 150 bp or absence of a nucleotide", "result": "almost no cleavage"},
      {"measurement": "cleavage of the 217 bp Mu SGS fragment (Mu217)", "setting": "E. coli gyrase; in the presence of ATP or ADPNP", "result": "strong cleavage"},
      {"measurement": "% maximal cleavage", "setting": "E. coli gyrase GyrA^I74M", "result": "40±10", "unit": "%"},
      {"measurement": "reduction in the maximal amount of cleavage", "setting": "E. coli gyrase GyrA^I74M; GyrA^I74M vs WT gyrase", "result": "~ 2 fold"},
      {"measurement": "EC50", "setting": "E. coli gyrase GyrA^I74M", "result": "0.042 ± 0.0077", "unit": "µM"},
      {"measurement": "% cleaved DNA Average", "setting": "E. coli gyrase GyrA^I74M; albicidin 0.0025 µM", "result": 2.868, "unit": "%"},
      {"measurement": "% cleaved DNA Average", "setting": "E. coli gyrase GyrA^I74M; albicidin 0.005 µM", "result": 1.835, "unit": "%"},
      {"measurement": "% cleaved DNA Average", "setting": "E. coli gyrase GyrA^I74M; albicidin 0.01 µM", "result": 6.013, "unit": "%"},
      {"measurement": "% cleaved DNA Average", "setting": "E. coli gyrase GyrA^I74M; albicidin 0.025 µM", "result": 10.9112, "unit": "%"},
      {"measurement": "% cleaved DNA Average", "setting": "E. coli gyrase GyrA^I74M; albicidin 0.05 µM", "result": 19.5143, "unit": "%"},
      {"measurement": "% cleaved DNA Average", "setting": "E. coli gyrase GyrA^I74M; albicidin 0.1 µM", "result": 32.1987, "unit": "%"},
      {"measurement": "% cleaved DNA Average", "setting": "E. coli gyrase GyrA^I74M; albicidin 0.25 µM", "result": 36.304, "unit": "%"},
      {"measurement": "% cleaved DNA Average", "setting": "E. coli gyrase GyrA^I74M; albicidin 0.5 µM", "result": 39.8221, "unit": "%"},
      {"measurement": "% cleaved DNA Average", "setting": "E. coli gyrase GyrA^I74M; albicidin 1 µM", "result": 36.4081, "unit": "%"}
    ]}
  ]
}
